Source: ChEMBL document CHEMBL1153550, “In vitro study of Candida tropicalis isolates exhibiting paradoxical growth in the presence of high concentrations of caspofungin” (2007)
≈ marks a conversion by molar mass, not a printed value. Calls of active or inactive are those of the source. The rule behind the calls is not given here.

Legend:
Candida tropicalis [1] = assay: Antifungal activity against > 2 x 10^7 CFU/ml Candida tropicalis isolate 3 in RPMI 1640 medium assessed as partial growth after 24 hrs by broth microdilution method; type: functional, organism-based
Candida tropicalis [2] = assay: Antifungal activity against 2 x 10^7 CFU/ml Candida tropicalis isolate 7 in antibiotic medium 3 after 24 hrs by broth microdilution method; type: functional; details: isolate 7, 24 h
Candida tropicalis [3] = assay: Antifungal activity against 2 x 10^7 CFU/ml Candida tropicalis isolate 3 in antibiotic medium 3 after 24 hrs by broth microdilution method; type: functional; details: isolate 3, 24 h
Candida tropicalis [4] = assay: Antifungal activity against Candida tropicalis isolate 4 in RPMI 1640 medium assessed as paradoxical growth at 6.25 ug/ml after 48 hrs by broth microdilution method; type: functional, organism-based
Candida tropicalis [5] = assay: Antifungal activity against 10^5 CFU/ml Candida tropicalis isolate 1 in RPMI 1640 medium at 12.5 ug/ml treated for 48 hrs followed by incubation in drug free medium for 48 hrs by broth microdilution method; type: functional, organism-based
Candida tropicalis [6] = assay: Antifungal activity against > 2 x 10^7 CFU/ml Candida tropicalis isolate 10 in RPMI 1640 medium assessed as partial growth after 24 hrs by broth microdilution method; type: functional, organism-based
Candida tropicalis [7] = assay: Antifungal activity against Candida tropicalis clinical isolate in antibiotic medium 3 assessed as paradoxical growth-related change in CFU treated for 24 hrs by time-kill assay; type: functional
Candida tropicalis [8] = assay: Antifungal activity against 10^5 CFU/ml Candida tropicalis isolate 3 in RPMI 1640 medium at 12.5 ug/ml treated for 48 hrs followed by incubation in drug free medium for 48 hrs by broth microdilution method; type: functional, organism-based
Candida tropicalis [9] = assay: Antifungal activity against 2 x 10^7 CFU/ml Candida tropicalis isolate 12 in RPMI 1640 medium after 24 hrs by broth microdilution method; type: functional; details: isolate 12, 24 h
Candida tropicalis [10] = assay: Fungistatic activity against Candida tropicalis clinical isolates at 12.5 ug/ml after 24 to 48 hrs by time-kill assay; type: functional, organism-based
Candida tropicalis [11] = assay: Antifungal activity against Candida tropicalis isolate 14 in RPMI 1640 medium assessed as paradoxical growth at 12.5 ug/ml after 24 hrs by broth microdilution method; type: functional, organism-based
Candida tropicalis [12] = assay: Antifungal activity against > 2 x 10^7 CFU/ml Candida tropicalis isolate 7 in antibiotic medium 3 assessed as partial growth after 24 hrs by broth microdilution method; type: functional, organism-based
Candida tropicalis [13] = assay: Antifungal activity against 2 x 10^7 CFU/ml Candida tropicalis isolate 10 in RPMI 1640 medium after 24 hrs by broth microdilution method; type: functional; details: isolate 10, 24 h
Candida tropicalis [14] = assay: Antifungal activity against Candida tropicalis isolate 7 in RPMI 1640 medium assessed as paradoxical growth at 12.5 ug/ml after 24 hrs by broth microdilution method; type: functional, organism-based
Candida tropicalis [15] = assay: Antifungal activity against 10^5 CFU/ml Candida tropicalis isolate 15 in RPMI 1640 medium at 12.5 ug/ml treated for 24 hrs followed by incubation in drug free medium for 48 hrs by broth microdilution method; type: functional, organism-based
Candida tropicalis [16] = assay: Antifungal activity against 2 x 10^7 CFU/ml Candida tropicalis isolate 2 in RPMI 1640 medium after 24 hrs by broth microdilution method; type: functional; details: isolate 2, 24 h
Candida tropicalis [17] = assay: Antifungal activity against 2 x 10^7 CFU/ml Candida tropicalis isolate 8 in RPMI 1640 medium after 24 hrs by broth microdilution method; type: functional; details: isolate 8, 24 h
Candida tropicalis [18] = assay: Antifungal activity against 10^5 CFU/ml Candida tropicalis isolate 4 in RPMI 1640 medium at 0.4 to 12.5 ug/ml treated for 24 hrs followed by incubation in drug free medium for 48 hrs by broth microdilution method; type: functional, organism-based
Candida tropicalis [19] = assay: Antifungal activity against 2 x 10^7 CFU/ml Candida tropicalis isolate 11 in antibiotic medium 3 after 24 hrs by broth microdilution method; type: functional; details: isolate 11, 24 h
Candida tropicalis [20] = assay: Antifungal activity against 2 x 10^7 CFU/ml Candida tropicalis isolate 15 in antibiotic medium 3 after 24 hrs by broth microdilution method; type: functional; details: isolate 15, 24 h
Candida tropicalis [21] = assay: Antifungal activity against 10^5 CFU/ml Candida tropicalis isolate 13 in RPMI 1640 medium at =< 0.09 ug/ml after 24 hrs followed by incubation in drug free medium for 48 hrs by broth microdilution method; type: functional, organism-based
Candida tropicalis [22] = assay: Antifungal activity against 2 x 10^7 CFU/ml Candida tropicalis isolate 5 in RPMI 1640 medium after 24 hrs by broth microdilution method; type: functional; details: isolate 5, 24 h
Candida tropicalis [23] = assay: Antifungal activity against 2 x 10^7 CFU/ml Candida tropicalis isolate 7 in RPMI 1640 medium after 24 hrs by broth microdilution method; type: functional; details: isolate 7, 24 h
Candida tropicalis [24] = assay: Antifungal activity against 10^5 CFU/ml Candida tropicalis isolate 14 in RPMI 1640 medium at =< 0.09 ug/ml after 24 hrs followed by incubation in drug free medium for 48 hrs by broth microdilution method; type: functional, organism-based
Candida tropicalis [25] = assay: Antifungal activity against Candida tropicalis isolate 6 in RPMI 1640 medium assessed as paradoxical growth at 12.5 ug/ml after 48 hrs by broth microdilution method; type: functional, organism-based
Candida tropicalis [26] = assay: Antifungal activity against 10^5 CFU/ml Candida tropicalis isolate 9 in RPMI 1640 medium at 12.5 ug/ml treated for 24 hrs followed by incubation in drug free medium for 48 hrs by broth microdilution method; type: functional, organism-based

SMILES: CC[C@H](C)C[C@H](C)CCCCCCCCC(=O)N[C@H]1C[C@@H](O)[C@@H](NCCN)NC(=O)[C@@H]2[C@@H](O)CCN2C(=O)[C@H]([C@H](O)CCN)NC(=O)[C@H]([C@H](O)[C@@H](O)c2ccc(O)cc2)NC(=O)[C@@H]2C[C@@H](O)CN2C(=O)[C@H]([C@@H](C)O)NC1=O [CASPOFUNGIN]
- Activity (Candida tropicalis [1]): inactive
- MIC (Candida tropicalis [2]): 0.024 µg/mL (≈ 0.022 µM)
- MIC (Candida tropicalis [3]): 0.024 µg/mL (≈ 0.022 µM)
- Activity (Candida tropicalis [4]): inactive
- Activity (Candida tropicalis [5]): inactive
- Activity (Candida tropicalis [6]): inactive
- Activity (Candida tropicalis [7]): 0.36 log10CFU/ml
- Activity (Candida tropicalis [8]): inactive
- MIC (Candida tropicalis [9]): 0.024 µg/mL (≈ 0.022 µM)
- Activity (Candida tropicalis [10]): Active
- Activity (Candida tropicalis [11]): inactive
- Activity (Candida tropicalis [12]): inactive
- MIC (Candida tropicalis [13]): 0.024 µg/mL (≈ 0.022 µM)
- Activity (Candida tropicalis [14]): Active
- Activity (Candida tropicalis [15]): inactive
- MIC (Candida tropicalis [16]): 0.024 µg/mL (≈ 0.022 µM)
- MIC (Candida tropicalis [17]): 0.024 µg/mL (≈ 0.022 µM)
- Activity (Candida tropicalis [18]): inactive
- MIC (Candida tropicalis [19]): 0.024 µg/mL (≈ 0.022 µM)
- MIC (Candida tropicalis [20]): 0.024 µg/mL (≈ 0.022 µM)
- Activity (Candida tropicalis [21]): Active
- MIC (Candida tropicalis [22]): 0.024 µg/mL (≈ 0.022 µM)
- MIC (Candida tropicalis [23]): 0.024 µg/mL (≈ 0.022 µM)
- Activity (Candida tropicalis [24]): Active
- Activity (Candida tropicalis [25]): inactive
- Activity (Candida tropicalis [26]): inactive
